Laboratory results taken from ChEMBL document CHEMBL1201862, “PubChem BioAssay data set” (2004).
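Interpolation was linear, between the two tested concentrations surrounding the appropriate level; five concentrations were tested over 48 hours in 96-well plates. GI50 marks 50% less growth.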 The source made the active and inactive calls. No stated cut-off is given here; in the data, active = GI50 up to about 1.1 µM and inactive = higher.

Columns and labels:
Assay in all cases: NCI-60 cell line screen, 48 h
UACC-257 = test system: UACC-257
RPMI-8226 = test system: RPMI-8226
RXF 393 = test system: RXF 393
SK-MEL-28 = test system: SK-MEL-28
TK-10 = test system: TK-10
HCT-116 = test system: HCT-116
PC-3 = test system: PC-3
K562 = test system: K562
EKVX = test system: EKVX
NCI-H23 = test system: NCI-H23
CAKI-1 = test system: CAKI-1
IGROV-1 = test system: IGROV-1
MDA-MB-231 = test system: MDA-MB-231
Hs-578T = test system: Hs-578T
HCT-15 = test system: HCT-15
HT-29 = test system: HT-29
SR = test system: SR
MCF7 = test system: MCF7
SW-620 = test system: SW-620
KM12 = test system: KM12
SK-MEL-2 = test system: SK-MEL-2
MOLT-4 = test system: MOLT-4
NCI-H460 = test system: NCI-H460
SNB-19 = test system: SNB-19
OVCAR-8 = test system: OVCAR-8
NCI-H226 = test system: NCI-H226
SNB-75 = test system: SNB-75
SK-OV-3 = test system: SK-OV-3
786-0 = test system: 786-0
UO-31 = test system: UO-31
HL-60 = test system: HL-60
SF-295 = test system: SF-295
COLO 205 = test system: COLO 205
MDA-MB-435 = test system: MDA-MB-435
SF-539 = test system: SF-539
A498 = test system: A498
OVCAR-4 = test system: OVCAR-4
DU-145 = test system: DU-145
T47D = test system: T47D
HCC 2998 = test system: HCC 2998
NCI/ADR-RES = test system: NCI/ADR-RES
BT-549 = test system: BT-549
HOP-62 = test system: HOP-62
HOP-92 = test system: HOP-92
ACHN = test system: ACHN
CCRF-CEM = test system: CCRF-CEM
SK-MEL-5 = test system: SK-MEL-5
LOX IMVI = test system: LOX IMVI
SF-268 = test system: SF-268
UACC-62 = test system: UACC-62
U-251 = test system: U-251
M14 = test system: M14
A549 = test system: A549
NCI-H522 = test system: NCI-H522
OVCAR-5 = test system: OVCAR-5
SN12C = test system: SN12C
OVCAR-3 = test system: OVCAR-3
MDA-N = test system: MDA-N

**Q.** Which GI50 (UACC-257) does the source give for `CCCCCCC(=O)c1ccc2ccccc2c1O` here?
**A.** 32.7 µM (inactive)

**Q.** What about the GI50 (RPMI-8226) of the same molecule?
**A.** 98.4 µM (inactive)

**Q.** And the GI50 (RXF 393)?
**A.** 25.1 µM (inactive)

**Q.** What about the GI50 (SK-MEL-28) of the same molecule?
**A.** > 100 µM (inactive)

**Q.** And the GI50 (TK-10)?
**A.** > 100 µM (inactive)

**Q.** What about the GI50 (HCT-116) of the same molecule?
**A.** 53 µM (inactive)

**Q.** And the GI50 (PC-3)?
**A.** 61 µM (inactive)

**Q.** And the GI50 (K562)?
**A.** > 100 µM (inactive)

**Q.** What about the GI50 (EKVX) of the same molecule?
**A.** 25.4 µM (inactive)

**Q.** And the GI50 (NCI-H23)?
**A.** 92.5 µM (inactive)

**Q.** And the GI50 (CAKI-1)?
**A.** 43.2 µM (inactive)

**Q.** What about the GI50 (IGROV-1) of the same molecule?
**A.** 27.4 µM (inactive)

**Q.** And the GI50 (MDA-MB-231)?
**A.** 85.5 µM (inactive)

**Q.** And the GI50 (Hs-578T)?
**A.** 56 µM (inactive)

**Q.** And the GI50 (HCT-15)?
**A.** 32.8 µM

**Q.** What about the GI50 (HT-29) of the same molecule?
**A.** 25.1 µM (inactive)

**Q.** What about the GI50 (SR) of the same molecule?
**A.** 33.3 µM (inactive)

**Q.** What about the GI50 (MCF7) of the same molecule?
**A.** 33.4 µM (inactive)

**Q.** What about the GI50 (SW-620) of the same molecule?
**A.** 64.7 µM (inactive)

**Q.** And the GI50 (KM12)?
**A.** 31 µM (inactive)

**Q.** And the GI50 (SK-MEL-2)?
**A.** 23.8 µM (inactive)

**Q.** And the GI50 (MOLT-4)?
**A.** 20.3 µM (inactive)

**Q.** And the GI50 (NCI-H460)?
**A.** 52.4 µM (inactive)

**Q.** What about the GI50 (SNB-19) of the same molecule?
**A.** > 100 µM (inactive)

**Q.** And the GI50 (OVCAR-8)?
**A.** 41.7 µM (inactive)

**Q.** And the GI50 (NCI-H226)?
**A.** 40.1 µM (inactive)

**Q.** What about the GI50 (SNB-75) of the same molecule?
**A.** 43.1 µM (inactive)

**Q.** What about the GI50 (SK-OV-3) of the same molecule?
**A.** 52.4 µM (inactive)

**Q.** What about the GI50 (786-0) of the same molecule?
**A.** 38.8 µM (inactive)

**Q.** And the GI50 (UO-31)?
**A.** 47.6 µM (inactive)

**Q.** What about the GI50 (HL-60) of the same molecule?
**A.** 36.4 µM (inactive)

**Q.** What about the GI50 (SF-295) of the same molecule?
**A.** 34.5 µM (inactive)

**Q.** And the GI50 (COLO 205)?
**A.** 66.1 µM (inactive)

**Q.** And the GI50 (MDA-MB-435)?
**A.** 69.2 µM (inactive)

**Q.** What about the GI50 (SF-539) of the same molecule?
**A.** 52.7 µM (inactive)

**Q.** What about the GI50 (A498) of the same molecule?
**A.** 0.318 µM (active)

**Q.** And the GI50 (OVCAR-4)?
**A.** > 100 µM (inactive)

**Q.** What about the GI50 (DU-145) of the same molecule?
**A.** 26.6 µM (inactive)

**Q.** What about the GI50 (T47D) of the same molecule?
**A.** 34.8 µM (inactive)

**Q.** And the GI50 (HCC 2998)?
**A.** > 100 µM (inactive)

**Q.** And the GI50 (NCI/ADR-RES)?
**A.** 51.2 µM (inactive)

**Q.** What about the GI50 (BT-549) of the same molecule?
**A.** 76 µM (inactive)

**Q.** And the GI50 (HOP-62)?
**A.** > 100 µM (inactive)

**Q.** What about the GI50 (HOP-92) of the same molecule?
**A.** 93.3 µM (inactive)

**Q.** What about the GI50 (ACHN) of the same molecule?
**A.** 54 µM (inactive)

**Q.** And the GI50 (CCRF-CEM)?
**A.** 33.1 µM (inactive)

**Q.** And the GI50 (SK-MEL-5)?
**A.** > 100 µM (inactive)

**Q.** And the GI50 (LOX IMVI)?
**A.** 42.1 µM (inactive)

**Q.** What about the GI50 (SF-268) of the same molecule?
**A.** 34.2 µM (inactive)

**Q.** What about the GI50 (UACC-62) of the same molecule?
**A.** 47 µM (inactive)

**Q.** And the GI50 (U-251)?
**A.** > 100 µM (inactive)

**Q.** What about the GI50 (M14) of the same molecule?
**A.** 58.3 µM (inactive)

**Q.** Which GI50 (UACC-257) does the source give for `COC(=O)C(C)(C)OCc1ccc(C2NC(=O)N(c3cccc(Cl)c3)C(=O)N2c2cccc(Cl)c2)cc1` (centres undefined) here?
**A.** 31.8 µM (inactive)

**Q.** What about the GI50 (RPMI-8226) of the same molecule?
**A.** 9.16 µM (inactive)

**Q.** What about the GI50 (RXF 393) of the same molecule?
**A.** 26.4 µM (inactive)

**Q.** What about the GI50 (SK-MEL-28) of the same molecule?
**A.** > 100 µM (inactive)

**Q.** What about the GI50 (HCT-116) of the same molecule?
**A.** 36.6 µM (inactive)

**Q.** And the GI50 (PC-3)?
**A.** 20.2 µM (inactive)

**Q.** What about the GI50 (K562) of the same molecule?
**A.** 7.45 µM (inactive)

**Q.** And the GI50 (EKVX)?
**A.** 10.5 µM (inactive)

**Q.** And the GI50 (NCI-H23)?
**A.** 1.26 µM (inactive)

**Q.** And the GI50 (CAKI-1)?
**A.** 35.2 µM (inactive)

**Q.** And the GI50 (IGROV-1)?
**A.** 22 µM (inactive)

**Q.** What about the GI50 (A549) of the same molecule?
**A.** 35.2 µM (inactive)

**Q.** And the GI50 (MDA-MB-231)?
**A.** 55 µM (inactive)

**Q.** And the GI50 (Hs-578T)?
**A.** 3.96 µM (inactive)

**Q.** What about the GI50 (HCT-15) of the same molecule?
**A.** 19.6 µM

**Q.** What about the GI50 (HT-29) of the same molecule?
**A.** 26.1 µM (inactive)

**Q.** And the GI50 (SR)?
**A.** 0.52 µM (active)

**Q.** What about the GI50 (MCF7) of the same molecule?
**A.** 35.7 µM (inactive)

**Q.** What about the GI50 (SW-620) of the same molecule?
**A.** 75.5 µM (inactive)

**Q.** And the GI50 (KM12)?
**A.** 23.7 µM (inactive)

**Q.** What about the GI50 (SK-MEL-2) of the same molecule?
**A.** 52.8 µM (inactive)

**Q.** And the GI50 (MOLT-4)?
**A.** 8.07 µM (inactive)

**Q.** And the GI50 (NCI-H460)?
**A.** 29.4 µM (inactive)

**Q.** And the GI50 (SNB-19)?
**A.** > 100 µM (inactive)

**Q.** And the GI50 (OVCAR-8)?
**A.** 32.6 µM (inactive)

**Q.** And the GI50 (SNB-75)?
**A.** 0.34 µM (active)

**Q.** And the GI50 (SK-OV-3)?
**A.** 54.3 µM (inactive)

**Q.** And the GI50 (786-0)?
**A.** 40.9 µM (inactive)

**Q.** And the GI50 (UO-31)?
**A.** 25.3 µM (inactive)

**Q.** And the GI50 (SF-295)?
**A.** 31 µM (inactive)

**Q.** And the GI50 (NCI-H522)?
**A.** 10.6 µM (inactive)

**Q.** And the GI50 (COLO 205)?
**A.** 28.6 µM (inactive)

**Q.** And the GI50 (MDA-MB-435)?
**A.** 46 µM (inactive)

**Q.** What about the GI50 (SF-539) of the same molecule?
**A.** 50.1 µM (inactive)

**Q.** What about the GI50 (OVCAR-5) of the same molecule?
**A.** > 100 µM (inactive)

**Q.** What about the GI50 (OVCAR-4) of the same molecule?
**A.** 57.5 µM (inactive)

**Q.** And the GI50 (SN12C)?
**A.** 29.2 µM (inactive)

**Q.** What about the GI50 (DU-145) of the same molecule?
**A.** 59.7 µM (inactive)

**Q.** And the GI50 (HCC 2998)?
**A.** 40.6 µM (inactive)

**Q.** What about the GI50 (NCI/ADR-RES) of the same molecule?
**A.** 17.1 µM (inactive)

**Q.** What about the GI50 (BT-549) of the same molecule?
**A.** 51.1 µM (inactive)

**Q.** And the GI50 (OVCAR-3)?
**A.** 56.2 µM (inactive)

**Q.** And the GI50 (HOP-62)?
**A.** 99.8 µM (inactive)

**Q.** And the GI50 (HOP-92)?
**A.** 15.1 µM (inactive)

**Q.** What about the GI50 (ACHN) of the same molecule?
**A.** 47.9 µM (inactive)

**Q.** And the GI50 (CCRF-CEM)?
**A.** 10.6 µM (inactive)

**Q.** And the GI50 (SK-MEL-5)?
**A.** 10.7 µM (inactive)

**Q.** What about the GI50 (MDA-N) of the same molecule?
**A.** 55.8 µM (inactive)

**Q.** And the GI50 (SF-268)?
**A.** 26.1 µM (inactive)

**Q.** What about the GI50 (UACC-62) of the same molecule?
**A.** 36.6 µM (inactive)

**Q.** What about the GI50 (U-251) of the same molecule?
**A.** 58.5 µM (inactive)

**Q.** What about the GI50 (M14) of the same molecule?
**A.** 65.3 µM (inactive)
